Target: T1, EDG-1/S1P1 receptor (Homo sapiens, UniProt P21453)
T1 construct: expressed in transfected cells; host or cells: human osteogenic sarcoma U2OS cells (EDG-1 Transfluor U2OS WT Clone #37)
Assay: In vitro cell based receptor activation assay - Transfluor assay
Details: EDG-1 Transfluor U2OS WT Clone #37 cells; beta-arrestin GFP relocalization; 375 nM or 750 nM S1P ligand
Source text: A. In Vitro Cell Based Receptor Activation Assay-Transfluor Assay
This cell-based assay was designed to assess the ability of small molecule antagonists to inhibit activation of the GPCR S1P1 in the presence of its cognate ligand S1P. The assay used technology initially developed by Norak Biosciences (Xsira Pharmaceutical) and presently owned by Molecular Devices. A human osteogenic sarcoma (U2OS) cell line overexpressing the EDG-1/S1P1) receptor as well as a beta-arrestin/green fluorescent protein (GFP) construct hereafter termed EDG-1 Transfluor U2OS WT Clone #37 was employed.
Using a high content screening approach (Cellomics Arrayscan), receptor activity was measured by assessment of the relocalization of beta-arrestin GFP in response to stimulation of EDG-1 by S1P. Specifically, EDG-1 Transfluor U2OS WT Clone #37 cells were plated at a density of 6250 cells in 40 uL medium per well in 384 well plastic bottomed microtiter plates (BD Falcon) and incubated overnight at 37° C./5% CO2. Prior to screening, compounds were dissolved in 100% dimethyl sulfoxide (DMSO) to a final stock concentration of 10 mM. […] Plates were then sealed and analysed on the Cellomics Arrayscan using the GPCR signalling algorithm. EC50 values were then calculated using IDBS ActivityBase software.

T1 sequence (P21453 whole entry): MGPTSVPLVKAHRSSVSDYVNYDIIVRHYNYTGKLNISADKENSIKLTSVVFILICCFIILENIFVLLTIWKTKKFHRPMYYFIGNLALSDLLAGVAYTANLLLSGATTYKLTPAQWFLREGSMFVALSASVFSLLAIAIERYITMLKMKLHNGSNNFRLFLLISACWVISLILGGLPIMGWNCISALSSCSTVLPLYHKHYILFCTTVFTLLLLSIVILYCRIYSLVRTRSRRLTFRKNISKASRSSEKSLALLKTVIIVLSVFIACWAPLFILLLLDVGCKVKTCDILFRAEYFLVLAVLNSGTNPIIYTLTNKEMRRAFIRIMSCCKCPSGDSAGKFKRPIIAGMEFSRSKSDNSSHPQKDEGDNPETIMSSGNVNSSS

EC50: 680 nM
SMILES: CCc1c(C(C)NS(=O)(=O)c2ccc(Cl)cc2)n[nH]c1C (stereo not shown) [Example 1]

From US20090111860A1, “SULFONAMIDE COMPOUNDS USEFUL AS ADG RECEPTOR MODULATORS” (ASTRAZENECA AB, priority 2006, published 2009)
